According to patent publication US20070190523A1 (priority 2002, published 2007):

Test system: mutant HIV-1 with I84V/L90M mutations
Test: not given
Format: cell-based
Conditions: I84V/L90M mutant

SMILES	I84V/L90M fold change
Cc1cccc(C)c1OCC(=O)NC(Cc1ccc(OCP(=O)(O)O)cc1)C(O)CN(CC(C)C)S(=O)(=O)c1ccc(N)cc1 (stereo not drawn)	− (≦3)
CC(C)CN(C[C@@H](O)[C@H](Cc1ccc(OCP(=O)(Oc2ccccc2)Oc2ccccc2)cc1)NC(=O)OC1CCOC1)S(=O)(=O)c1ccc(N)cc1 (stereo partly drawn) [NH2, phenol]	− (≦3)
COc1ccc(S(=O)(=O)N(CC(C)C)CC(O)C(Cc2ccc(OCc3ccccc3)cc2)NC(=O)OC2COC3OCCC23)cc1 (stereo not drawn)	− (≦3)
CCOP(=O)(COc1ccc(CC(NC(=O)OC2COC3OCCC23)C(O)CN(CC(C)C)S(=O)(=O)c2cccc(N)c2)cc1)OCC (stereo not drawn)	− (≦3)
CC(C)CN(CC(O)C(Cc1ccccc1)NC(=O)OC1COC2OCCC12)S(=O)(=O)c1ccc(O)cc1 (stereo not drawn)	− (≦3)
CCOP(=O)(COc1ccc(CC(NC(=O)OC2COC3OCCC23)C(O)CN(CC(C)C)S(=O)(=O)c2ccc([N+](=O)[O-])cc2)cc1)OCC (stereo not drawn)	− (≦3)
COc1ccc(S(=O)(=O)N(CC(C)C)C[C@@H](O)[C@H](Cc2ccc(OCP(=O)(Oc3ccccc3)Oc3ccccc3)cc2)NC(=O)OC2CCOC2)cc1 (stereo partly drawn) [OMe, phenol]	+ (>3 to ≦10)
CC(C)CN(CC(O)C(Cc1ccc(O)cc1)NC(=O)OC1COC2OCCC12)S(=O)(=O)c1cccc(N)c1 (stereo not drawn) [OH, m-NH2]	− (≦3)
CCOC(=O)C(C)OP(=O)(Cc1ccc2c(c1)CCN(C[C@H](NC(=O)O[C@H]1CO[C@H]3OCC[C@H]31)[C@H](O)CN(CC(C)C)S(=O)(=O)c1ccc(OC)cc1)C2)Oc1ccccc1 (stereo partly drawn)	+ (>3 to ≦10)
CC(C)CN(CC(O)C(Cc1ccc(OCP(=O)(O)O)cc1)NC(=O)OC1COC2OCCC12)S(=O)(=O)c1ccc(N)cc1 (stereo not drawn)	− (≦3)
COc1ccc(S(=O)(=O)N(CCN(C)C)CC(O)C(Cc2ccc(OCc3ccccc3)cc2)NC(=O)OC2COC3OCCC23)cc1 (stereo not drawn)	− (≦3)

Same assay, conditions: fold difference in EC50 vs wild type, class symbols

SMILES	I84V/L90M fold change
CCOC(=O)C(NP(=O)(COc1ccc(CC(NC(=O)OC2COC3OCCC23)C(O)CN(CC(C)C)S(=O)(=O)c2ccc(OC)cc2)cc1)NC(C(=O)OCC)C(C)C)C(C)C (stereo not drawn) [drawing 606 R1=Val-Et R2=Val-Et]	− (≦3)
COc1ccc(S(=O)(=O)N(CC(C)C)CC(O)C(Cc2ccc(OCP(=O)(Oc3ccccc3)OC(C)C(=O)OC(C)C)cc2)NC(=O)OC2COC3OCCC23)cc1 (stereo not drawn) [drawing 609 R1=OPh R2=Lac-iPr]	− (≦3)
CCCCOC(=O)C(C)OP(=O)(COc1ccc(CC(NC(=O)OC2COC3OCCC23)C(O)CN(CC(C)C)S(=O)(=O)c2ccc(OC)cc2)cc1)Oc1ccccc1 (stereo not drawn) [drawing 609 R1=OPh R2=Lac-Bu]	− (≦3)
COc1ccc(S(=O)(=O)N(CC(C)C)CC(O)C(Cc2ccc(OCP(=O)(NC(C)C(=O)OC(C)C)Oc3ccccc3)cc2)NC(=O)OC2COC3OCCC23)cc1 (stereo not drawn) [drawing 608 R1=OPh R2=Ala-iPr]	− (≦3)
COc1ccc(S(=O)(=O)N(CC(C)C)CC(O)C(Cc2ccc(OCP(=O)(O)OC(C)C(=O)O)cc2)NC(=O)OC2COC3OCCC23)cc1 (stereo not drawn) [drawing 609 R1=OH R2=Lac-OH]	− (≦3)
CCOP(=O)(CN1CC=C(CC(NC(=O)OC2COC3OCCC23)C(O)CN(CC(C)C)S(=O)(=O)c2ccc(OC)cc2)CC1)OCC (stereo not drawn)	+ (>3 to ≦10)
COc1ccc(S(=O)(=O)N(CC(C)C)CC(O)C(Cc2ccc(OCP(=O)(O)OC(C)C(=O)O)cc2)NC(=O)OC2COC3OCCC23)cc1 [drawing 609 R1=OH R2=(R)Lac-OH]	− (≦3)
CCOC(=O)C(C)OP(=O)(COc1ccc(CC(NC(=O)OC2COC3OCCC23)C(O)CN(CC(C)C)S(=O)(=O)c2ccc(OC)cc2)cc1)OC(C)C(=O)OCC (stereo not drawn) [drawing 607 R1=Lac-Et R2=Lac-Et]	− (≦3)
COc1ccc(S(=O)(=O)N(CC(C)C)CC(O)C(Cc2ccc(OCP(=O)(OC(C)C)OC(C)C)cc2)NC(=O)OC2COC3OCCC23)cc1 (stereo not drawn) [drawing 602 R1=OiPr R2=OiPr]	− (≦3)

Target: WT (Human immunodeficiency virus type 1 group M subtype B, UniProt P04585)
Test: cell-based
Parameters: species or system HIV
Conditions: not given

SMILES	EC50 [µM]
Nc1n[nH]c2ccc(CN3C(=O)N(Cc4cccc(O)c4)C(Cc4ccccc4)C(O)C(O)C3Cc3ccccc3)cc12 (stereo not drawn) [m-OH]	0.151
CCOP(=O)(COc1cccc(CN2C(=O)N(Cc3ccc4[nH]nc(N)c4c3)C(Cc3ccccc3)C(O)C(O)C2Cc2ccccc2)c1)OCC (stereo not drawn)	0.665
Nc1n[nH]c2ccc(CN3C(=O)N(Cc4cccc(OCP(=O)(OCc5ccccc5)OCc5ccccc5)c4)C(Cc4ccccc4)C(O)C(O)C3Cc3ccccc3)cc12 (stereo not drawn)	0.898
Nc1n[nH]c2ccc(CN3C(=O)N(CCCCOCP(=O)(O)O)C(Cc4ccccc4)C(O)C(O)C3Cc3ccccc3)cc12 (stereo not drawn) [CH2OCH2PO3H2]	1.76
Nc1n[nH]c2ccc(CN3C(=O)N(Cc4cccc(OCP(=O)(O)Oc5ccccc5)c4)C(Cc4ccccc4)C(O)C(O)C3Cc3ccccc3)cc12 (stereo not drawn) [m-OCH2PO3HPh]	1.75
Nc1n[nH]c2ccc(CN3C(=O)N(Cc4cccc(OCP(=O)(O)O)c4)C(Cc4ccccc4)C(O)C(O)C3Cc3ccccc3)cc12 (stereo not drawn) [m-OCH2PO3H2]	> 12
CCOP(=O)(COc1ccc(CN2C(=O)N(Cc3ccc4[nH]nc(N)c4c3)C(Cc3ccccc3)C(O)C(O)C2Cc2ccccc2)cc1)OCC (stereo not drawn)	2.48
Nc1n[nH]c2ccc(CN3C(=O)N(Cc4cccc(OCP(=O)(Oc5ccccc5)Oc5ccccc5)c4)C(Cc4ccccc4)C(O)C(O)C3Cc3ccccc3)cc12 (stereo not drawn) [m-OCH2PO3Ph2]	1.35
CCCCN1C(=O)N(Cc2ccc3[nH]nc(N)c3c2)C(Cc2ccccc2)C(O)C(O)C1Cc1ccccc1 (stereo not drawn) [DMP-851]	0.054
Nc1n[nH]c2ccc(CN3C(=O)N(Cc4ccc(OCP(=O)(OCc5ccccc5)OCc5ccccc5)cc4)C(Cc4ccccc4)C(O)C(O)C3Cc3ccccc3)cc12 (stereo not drawn)	2.7
CCOP(=O)(COc1ccc(CC2C(O)C(O)C(Cc3ccc(OC)cc3)N(Cc3cccc(N)c3)C(=O)N2Cc2cccc(N)c2)cc1)OCC (stereo not drawn) [OCH3, Ph-mNH2, OCH2PO3Et2]	0.063
CCOP(=O)(COCCCCN1C(=O)N(Cc2ccc3[nH]nc(N)c3c2)C(Cc2ccccc2)C(O)C(O)C1Cc1ccccc1)OCC (stereo not drawn) [CH2OCH2PO3Et2]	0.119
CCOP(=O)(CCCNC(=O)c1cccc(CN2C(=O)N(Cc3cccc(N)c3)C(Cc3ccccc3)C(O)C(O)C2Cc2ccccc2)c1)OCC (stereo not drawn)	0.176

Test system: wild-type HIV-1 strain IIIB
Test: microbe, parasite or virus in culture
Format: cell-based
Conditions: Human immunodeficiency virus 1, IIIB, MT2

SMILES	EC50 [µM]
CC(C)CN(CC(O)C(Cc1ccc(O)cc1)NC(=O)OC1COC2OCCC12)S(=O)(=O)c1ccc(OCP(=O)(O)O)cc1 (stereo not drawn) [OH, OH]	> 5
CCOC(=O)C(CC)NP(=O)(COc1ccc(CC(NC(=O)OC2COC3OCCC23)C(O)CN(CC(C)C)S(=O)(=O)c2ccc(OC)cc2)cc1)NC(CC)C(=O)OCC (stereo not drawn) [drawing 606 R1=Aba-Et R2=Aba-Et]	< 0.05

Same assay, conditions: read-out: Anti-HIV-1 Cell Culture Activity EC50

SMILES	EC50 [µM]
CCCCOC(=O)C(Cc1ccccc1)NP(=O)(COc1ccc(CC(NC(=O)OC2COC3OCCC23)C(O)CN(CC(C)C)S(=O)(=O)c2ccc(OC)cc2)cc1)NC(Cc1ccccc1)C(=O)OCCCC (stereo not drawn) [Example 16j]	0.035 ± 0.007

Same assay, conditions: read-out: EC50

SMILES	EC50 [µM]
CC(C)CN(C[C@@H](O)[C@H](Cc1ccc(OCP(=O)(OCc2ccccc2)OC(C)C(=O)OCc2ccccc2)cc1)NC(=O)O[C@H]1CO[C@H]2OCC[C@H]21)S(=O)(=O)c1ccc(OCc2ccccc2)cc1 (stereo partly drawn)	0.5 to 5
Cc1ccc(C(=O)N[C@@H](Cc2ccc(OCP(=O)(Oc3ccccc3)Oc3ccccc3)cc2)[C@H](O)CN(CC(C)C)S(=O)(=O)c2ccc(N)cc2)cc1O	0.5 to 5
COc1ccc(S(=O)(=O)N(CC(C)C)CC(O)C(Cc2ccc(NCP(=O)(O)O)cc2)NC(=O)OC2COC3OCCC23)cc1 (stereo not drawn)	0.05 to 0.5
